Consider four compounds from patent publication US11076595B2, “1-(n,n-disubstituted carbamoyl) 4-(substituted sulfonyl)triazolin-5-one derivative, 4-(n,n-disubstituted carbamoyl) 1-(substituted sulfonyl)triazolin-5-one derivative, and herbicide containing said derivative as active ingredient” (HOKKO CHEMICAL INDUSTRY CO., LTD., priority 2017, dated 2021).

Common to all, as to format: in vivo
Assay [1] deals with Echinochloa crus-galli. Kind of assay: Test Example 12: herbicidal effect test by treatment during growing period in paddy field. The note with it: 120 g/10a; treatment seven days after sowing in flooded paddy pot; assessed 14 days after treatment. A digest of the protocol: (§1)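 Paddy soil + NPK 17:17:17, puddled; 30 seeds/species sown 0–1 cm; flooded ~3 cm, greenhouse. Day 7 post-sowing: EC diluted in water, applied dropwise into water, 120 g a.i./10 are. Day 14 post-treatment: dry weight vs untreated → % suppression; n=2.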

Assay [2] has as its system Lindernia pyxidaria. The assay is described as above. The note with it: 120 g/10a; treatment seven days after sowing in flooded paddy pot; assessed 14 days after treatment. Summed up:
as §1

Assay [3] has as its system Scirpus juncoides. The description is as above. Conditions: 120 g/10a; treatment seven days after sowing in flooded paddy pot; assessed 14 days after treatment. A digest of the protocol: as §1
Assay [4] concerns Monochoria vaginalis. The description is as above. Conditions: 120 g/10a; treatment seven days after sowing in flooded paddy pot; assessed 14 days after treatment. Summed up: as §1
In assay [5] the test system is Echinochloa crus-galli. Kind of assay: Test Example 13: herbicidal effect test by soil treatment in upland field. The note with it: 120 g/10a, 14 days after treatment. Summed up:
(§2)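 Weed suppression rate (%) computed at 14 days as 1 minus treated/untreated mean dry weight, times 100, with two replicates per concentration. Emulsifiable concentrate diluted in water was applied at 120 g a.i. per 10 are (100 liter per 10 are) onto soil surface one day post-sowing of 20 seeds each in 36 cm^2 pots of alluvial soil.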

The subject of assay [6] is Chenopodium album. Described as above. Conditions: 120 g/10a, 14 days after treatment. Summed up: as §2
Assay [7] deals with crabgrass. Described as above. Conditions: 120 g/10a, 14 days after treatment. A digest of the protocol: as §2
Assay [8] has as its system Amaranthus viridis. The description is as above. The note with it: 120 g/10a, 14 days after treatment. A digest of the protocol:
as §2

Assay [9] has as its system Echinochloa crus-galli. Kind of assay: Test Example 11: herbicidal effect test by soil treatment in paddy field. The note with it: 120 g/10a active ingredient, 14 days after treatment. A digest of the protocol:
(§3)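 Pre-emergence flooded-paddy test: the water-diluted emulsifiable concentrate, 120 g active ingredient per 10 are, was dripped into pots immediately after seeding, with water held at about 3 cm. Two replicate pots per rate; 14 days after treatment, plant dry weight versus untreated pots gave the weed suppression rate.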

Assay [10] relates to Lindernia pyxidaria. The description is as above. Conditions: 120 g/10a active ingredient, 14 days after treatment. A digest of the protocol: as §3
The subject of assay [11] is Scirpus juncoides. Described as above. The note with it: 120 g/10a active ingredient, 14 days after treatment. Summed up:
as §3

In assay [12] the test system is Monochoria vaginalis. The description is as above. Conditions: 120 g/10a active ingredient, 14 days after treatment. Summed up: as §3
Assay [13] relates to Chenopodium album. Kind of assay: Test Example 14: herbicidal effect test by foliage treatment in upland field. Conditions: 7 days after sowing, 120 g/10a, 14 days after treatment. A digest of the protocol:
(§4)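 Weeds sown 20 seeds each in alluvial field soil; 7 days after sowing, water-diluted emulsifiable concentrate sprayed at 100 L per 10 are, 120 g active ingredient per 10 are. Suppression rate (%) from dry weight versus untreated plots at 14 days, two replicates.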

The subject of assay [14] is crabgrass. Described as above. Conditions: 7 days after sowing, 120 g/10a, 14 days after treatment. Summed up:
as §4

In assay [15] the test system is Echinochloa crus-galli. Described as above. Conditions: 7 days after sowing, 120 g/10a, 14 days after treatment. A digest of the protocol:
as §4

The test system of assay [16] is Amaranthus viridis. Described as above. The note with it: 7 days after sowing, 120 g/10a, 14 days after treatment. Summed up:
as §4

Take `CC(C)N(C(=O)n1cnn(S(=O)(=O)c2ccccc2Cl)c1=O)c1ccccc1` [Compound 11-501]: the “Weed suppression rate (%) Echinochloa crus-galli” value in the assay on Echinochloa crus-galli [1] and in the assay on Echinochloa crus-galli [9] was 100% throughout. Also, the “Weed suppression rate (%) Lindemia pyxidaria” value in the assay on Lindernia pyxidaria [2] is on record as 80%; in the assay on Lindernia pyxidaria [10] it was 90%. Also, the “Weed suppression rate (%) Scirpus juncoides” value in the assay with Scirpus juncoides [3] and in the assay with Scirpus juncoides [11] was 90% in each case. Further, the “Weed suppression rate (%) Monochoria vaginalis” value in the assay with Monochoria vaginalis [4] is 90%; in the assay on Monochoria vaginalis [12], 80%. Besides, the “herbicidal effect, Echinochloa crus-galli” value amounted to 40% in the assay on Echinochloa crus-galli [5] and 70% in the assay on Echinochloa crus-galli [15]. Also, the “herbicidal effect, Chenopodium album” value in the assay with Chenopodium album [6] and with Chenopodium album [13] was 0% throughout. The “herbicidal effect, Crabgrass” value in the assay on crabgrass [7] and in the assay with crabgrass [14] was 90% each time. For the same compound, the “herbicidal effect, Amaranthus viridis” value with Amaranthus viridis [8] and in the assay with Amaranthus viridis [16] was 0% throughout.

As for `CC(C)N(C(=O)n1cnn(S(C)(=O)=O)c1=O)c1ccccc1` [Compound 11-1], the “Weed suppression rate (%) Echinochloa crus-galli” value in the assay on Echinochloa crus-galli [1] and in the assay with Echinochloa crus-galli [9] was 90% each time. The “Weed suppression rate (%) Lindemia pyxidaria” value in the assay on Lindernia pyxidaria [2] and in the assay with Lindernia pyxidaria [10] was 80% throughout. Besides, the “Weed suppression rate (%) Scirpus juncoides” value in the assay on Scirpus juncoides [3] and in the assay on Scirpus juncoides [11] was 90% throughout. Also, the “Weed suppression rate (%) Monochoria vaginalis” value with Monochoria vaginalis [4] and in the assay on Monochoria vaginalis [12] was 80% throughout. In addition, the “herbicidal effect, Echinochloa crus-galli” value in the assay on Echinochloa crus-galli [5] and in the assay on Echinochloa crus-galli [15] was 80% throughout. Besides, the “herbicidal effect, Chenopodium album” value with Chenopodium album [6] and in the assay on Chenopodium album [13] was 80% in each case. The “herbicidal effect, Crabgrass” value with crabgrass [7] and in the assay on crabgrass [14] was 90% throughout. Besides, the “herbicidal effect, Amaranthus viridis” value in the assay on Amaranthus viridis [8] and with Amaranthus viridis [16] was 90% each time.

On to `CC(C)N(C(=O)n1cnn(S(=O)(=O)C2CCCC2)c1=O)c1ccc(F)cc1F` [Compound 11-273], for which the “Weed suppression rate (%) Echinochloa crus-galli” value in the assay with Echinochloa crus-galli [1] and in the assay with Echinochloa crus-galli [9] was 100% in each case. Further, the “Weed suppression rate (%) Lindemia pyxidaria” value in the assay on Lindernia pyxidaria [2] stood at 90%; in the assay on Lindernia pyxidaria [10], 100%. Besides, the “Weed suppression rate (%) Scirpus juncoides” value in the assay with Scirpus juncoides [3] and in the assay on Scirpus juncoides [11] was 90% in each case. The “Weed suppression rate (%) Monochoria vaginalis” value in the assay on Monochoria vaginalis [4] and with Monochoria vaginalis [12] was 90% in each case. In addition, the “herbicidal effect, Echinochloa crus-galli” value in the assay on Echinochloa crus-galli [5] came out at 90%; in the assay on Echinochloa crus-galli [15], 80%. Besides, the “herbicidal effect, Chenopodium album” value with Chenopodium album [6] came out at 90%; in the assay with Chenopodium album [13] it was 80%. Besides, the “herbicidal effect, Crabgrass” value amounted to 100% in the assay on crabgrass [7] and 90% in the assay with crabgrass [14]. Also, the “herbicidal effect, Amaranthus viridis” value in the assay with Amaranthus viridis [8] stood at 60%; in the assay with Amaranthus viridis [16], 90%.

Regarding `Cc1ccc(N(C(=O)n2cnn(S(=O)(=O)C3CC3)c2=O)C(C)C)c(F)c1` [Compound 11-212], the “Weed suppression rate (%) Echinochloa crus-galli” value in the assay on Echinochloa crus-galli [1] is listed as 90%; with Echinochloa crus-galli [9], 100%. Also, the results for the “Weed suppression rate (%) Lindemia pyxidaria” value in the assay with Lindernia pyxidaria [2] and in the assay with Lindernia pyxidaria [10] were 80% and 90%, respectively. Moreover, the “Weed suppression rate (%) Scirpus juncoides” value in the assay with Scirpus juncoides [3] and in the assay on Scirpus juncoides [11] was 90% throughout. The “Weed suppression rate (%) Monochoria vaginalis” value in the assay on Monochoria vaginalis [4] and in the assay with Monochoria vaginalis [12] was 80% in each case. Also, the entries for the “herbicidal effect, Echinochloa crus-galli” value in the assay with Echinochloa crus-galli [5] and in the assay on Echinochloa crus-galli [15] were 100% and 80%, respectively. Besides, the “herbicidal effect, Chenopodium album” value is 60% in the assay on Chenopodium album [6] and 80% in the assay with Chenopodium album [13]. Also, the results for the “herbicidal effect, Crabgrass” value in the assay with crabgrass [7] and in the assay on crabgrass [14] were 100% and 90%, respectively. Further, the “herbicidal effect, Amaranthus viridis” value in the assay with Amaranthus viridis [8] was 60%; in the assay on Amaranthus viridis [16], 90%.
